Source: ChEMBL document CHEMBL3430912, “GSK Tres Cantos Anti-Kinetoplastid Screening (TCAKS) Data”

What was measured:
[1] = test system: Leishmania donovani; test: (§1) GSK_TCAKS: pIC50 Leishmania donovani Imaging: Infected Macrophages. Assay plates (384-well) were prepared by adding 250nL of compound to each well. For single shot assay, the final compound concentration was 5 uM. […] Automated image analysis was performed with a script developed on Acapella High Content Imaging and Analysis Software (PerkinElmer). Output: Percent of infected macrophage cells were reported for each well.; assay type: functional, organism-based, Homo sapiens; settings: THP-1
[2] = test system: Leishmania donovani; test: GSK_TCAKS: pIC50 Leishmania donovani viability assay using fluorescence intensity. Assay plates (1536-well) were prepared by adding 30nL per well of compound. For single shot assay, the final compound concentration was 5uM. […] Briefly, eGFP LdBOB axenic amastigotes were harvested, fixed and counted in a CASY cell counter (Roche-Applied Science). A final concentration of 1.5 * 10^5 cells per well were prepared in amastigote media containing 500 U/mL penicillin/streptomycin (Invitrogen) and 6uL was dispensed to each experimental well using a Multidrop Combi dispenser (Thermo Scientific). 6uL of assay media was dispensed to control columns used as reference for 100% compound response. Following incubation for 72 h at 37C, 5% CO2, 2 uL of resazurin was added to each well at a final concentration of 0.5 mM in phosphate buffered saline (PBS) with IGEPAL (Sigma-Aldrich), 0.05% (v/v).; assay type: functional, organism-based
[3] = test system: Trypanosoma cruzi; test: (§2) GSK_TCAKS: pIC50 Trypanosoma cruzi Imaging: Amastigotes/Cell. […] Cells were then washed once with PBS before infection. T. cruzi trypomastigotes, collected at days 5 to 8 after infection from LLC-MK2 parasite infected cultures, were allowed to swim out for 4h at 37C from a centrifuged pellet (2,500 rpm/10 min/room temperature). Trypomastigotes were then collected and counted in a CASY Cell Counter. Trypomastigotes, in supplemented DMEM, were added to H9c2 cultures in a multiplicity of infection of 1 and incubated for 18 h. Cells were washed once with PBS before incubation of the infected H9c2 monolayer with trypsin (Life-Technologies) to detach cells from the flask. Cells were counted in a CASY Cell Counter using a 150 um capillary and their density set at 5 * 10^4 cells per mL in supplemented assay DMEM. Infected H9c2 were dispensed into 384-well poly-lysine coated assay plates at 50uL per well using a Multidrop Combi dispenser. After seeding them, the plates were incubated at 37C, 5% CO2 for 72h. Cultures were then fixed and stained by addition of 50 uL of a solution containing 8% formaldehyde and 4 uM DRAQ5 DNA dye (BioStatus, UK) per well. […] Five images were collected per well for reliable statistical analysis. Automated image analysis was performed with a script developed on Acapella High Content Imaging and Analysis Software (PerkinElmer). Output: number of amastigotes per cell as infection level measurement.; assay type: functional, organism-based, Rattus norvegicus; settings: H9c2, 4 h
[4] = target: Sterol 14-alpha demethylase (Trypanosoma cruzi (strain CL Brener), UniProt Q7Z1V1); test: GSK_TCAKS: pIC50 CYP51 from Trypanosoma cruzi.; assay type: functional
Chain of Sterol 14-alpha demethylase (Q7Z1V1 whole entry): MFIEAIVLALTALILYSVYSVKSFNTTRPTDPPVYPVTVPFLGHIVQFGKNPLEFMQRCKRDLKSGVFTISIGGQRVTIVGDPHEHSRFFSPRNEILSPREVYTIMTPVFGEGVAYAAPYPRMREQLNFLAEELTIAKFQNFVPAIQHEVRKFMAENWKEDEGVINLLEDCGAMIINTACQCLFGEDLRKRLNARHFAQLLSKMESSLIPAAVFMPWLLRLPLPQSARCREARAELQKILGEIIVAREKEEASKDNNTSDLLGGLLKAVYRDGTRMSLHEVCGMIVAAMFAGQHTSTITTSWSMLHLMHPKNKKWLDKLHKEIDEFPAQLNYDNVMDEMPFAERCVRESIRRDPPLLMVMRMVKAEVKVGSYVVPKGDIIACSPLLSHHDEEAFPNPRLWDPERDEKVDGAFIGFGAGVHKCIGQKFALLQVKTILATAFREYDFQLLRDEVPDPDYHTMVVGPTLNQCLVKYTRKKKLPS

[5] = GSK_TCAKS: pIC50 HepG2 human cell line viability assay using luminiscence. […] Seeding density was checked to ensure that new mono-layers were not more than 50% confluent at the time of harvesting. Cell suspension was added to 500 mL of the same medium at a final density of 1.2 * 10^5 cells/mL. This cell suspension was dispensed (25 uL, 3000 cells per well) into 384-well clear-bottom plates using a Multidrop Combi dispenser. Prior to addition of the cell suspension, the screening compounds (250 nL) were pre-dispensed into the plates with an Echo liquid handler. Plates were incubated for 48 h at 37C, 5% CO2. After incubation, plates equilibrated at room temperature for 30 min before proceeding to develop the luminescent signal. The signal developer, CellTiter-Glo Reagent, was allowed to equilibrate at room temperature for 30 min and added to the plates (25uL per well) using a Multidrop Combi dispenser. Plates were left for 10 min at room temperature for stabilization and then read using a ViewLux.; assay type: toxicity, cell-based
[6] = test system: Trypanosoma brucei brucei; test: GSK_TCAKS: pIC50 Trypanosoma brucei viability assay using luminiscence. Assay plates (1536-well) were prepared. T. brucei cultures were harvested and counted in a CASY cell counter. A parasite suspension was prepared at a final concentration of 5 * 10^4 cells/mL in complete HMI9 medium and 6uL was dispensed to all wells containing compounds using a Multidrop Combi dispenser. 6uL of HMI9 media with 0.4% DMSO were dispensed to control columns. Plates were incubated for 24 h at 37C, 5% CO2 then tempered for 10 min at room temperature. ATP content was quantified by adding 4 uL of CellTiter-Glo Reagent (Promega) according to the manufacturer's instructions. Luminescence was measured using a ViewLux.; assay type: functional, organism-based; settings: Lister 427, CASY
[7] = test system: Leishmania donovani; test: as §1, with “Amastigotes/Macrophages.” for “Infected Macrophages.”, “Average number” for “Percent”, “amastigotes per” for “infected”, “cell” for “cells”; assay type: functional, organism-based, Homo sapiens; settings: THP-1
[8] = test system: Trypanosoma cruzi; test: GSK_TCAKS: pIC50 Trypanosoma cruzi viability assay using beta-GAL activity. This assay was run at single shot at 5uM compound concentration per well. The biological reagents consisted of NIH-3T3 host cells and trypomastigotes parasitic cells; both cell types were set to a 3.3 * 10^5 cells/mL dilution in assay DMEM by means of a CASY cell counter device using a 60um capillary. 6 uL of the mixture were dispensed per well (about 1 * 10^3 host-cells and 1 * 10^3 parasites) with a Multidrop Combi dispenser. […] In all wells, the percentage of DMSO never exceeded 0.5%. Plates incubated for four days at 37C, 5% CO2. The substrate used for the assay fluorescence intensity (FLINT) readout was resorufin-beta-D-galactopiranoside (Sigma-Aldrich) at 5uM per well. It was diluted in PBS supplemented with the soft detergent Igepal (Fluka).; assay type: functional, organism-based, Mus musculus; settings: Tulahuen, NIH3T3
[9] = test system: Trypanosoma brucei brucei; test: GSK_TCAKS: pIC50 Trypanosoma brucei viability assay using fluorescence intensity. Assay plates (1536-well) were prepared by dispensing 25nL of compound solution per well using an Echo acoustic dispenser (Labcyte).; assay type: functional, organism-based; settings: Lister 427, 2 h
[10] = test system: Trypanosoma cruzi; test: as §2, with “H2C9” for “Trypanosoma cruzi”, “H9c2 Host Cardiomyocytes.” for “Amastigotes/Cell.”, “Number” for “number”, “H9c2 Host Cardiomyocytes nuclei to determine drug-related cytotoxicity.” for “amastigotes per cell as infection level measurement.”; assay type: functional, organism-based, Rattus norvegicus; settings: H9c2, 4 h
[11] = test system: Leishmania donovani; test: as §1, with “THP-1 Host” for “Infected”, “THP-1 cell count” for “Percent of infected macrophage cells”; assay type: functional, organism-based, Homo sapiens
[12] = test system: Trypanosoma cruzi; test: GSK_TCAKS: pIC50 Trypanosoma cruzi Imaging: Infected Cells. […] Cells were then washed once with PBS before infection. T. cruzi trypomastigotes, collected at days 5 to 8 after infection from LLC-MK2 parasite infected cultures, were allowed to swim out for 4h at 37C from a centrifuged pellet (2,500 rpm/10 min/room temperature). Trypomastigotes were then collected and counted in a CASY Cell Counter. Trypomastigotes, in supplemented DMEM, were added to H9c2 cultures in a multiplicity of infection of 1 and incubated for 18 h. Cells were washed once with PBS before incubation of the infected H9c2 monolayer with trypsin (Life-Technologies) to detach cells from the flask. Cells were counted in a CASY Cell Counter using a 150 um capillary and their density set at 5 * 10^4 cells per mL in supplemented assay DMEM. Infected H9c2 were dispensed into 384-well poly-lysine coated assay plates at 50uL per well using a Multidrop Combi dispenser. After seeding them, the plates were incubated at 37C, 5% CO2 for 72h. Cultures were then fixed and stained by addition of 50 uL of a solution containing 8% formaldehyde and 4 uM DRAQ5 DNA dye (BioStatus, UK) per well. […] Five images were collected per well for reliable statistical analysis. Automated image analysis was performed with a script developed on Acapella High Content Imaging and Analysis Software (PerkinElmer). Output: percentage of infected cells per well as a second infection marker.; assay type: functional, organism-based, Rattus norvegicus; settings: H9c2, 4 h

Row | Compound | IC50 [1] [nM] | IC50 [2] [nM] | IC50 [3] [nM] | IC50 [4] [nM] | IC50 at 48 h [5] [nM] | IC50 [6] [nM] | IC50 [7] [nM] | IC50 [8] [nM] | IC50 [9] [nM] | IC50 [10] [nM] | IC50 [11] [nM] | IC50 [12] [nM]
1 | CS(=O)(=O)N1CCC(Nc2ncc(Br)c(Nc3cccc(F)c3C(N)=O)n2)CC1 | 1580 | 100 | 398 | > 100000 | > 100000 | 15.8 | 794 | 316 | 10 | 158 | 1000 | 1000
2 | NC(=O)c1cc(F)ccc1Nc1nc(N[C@H]2CC[C@H](O)CC2)ncc1Br | 794 | 1580 | 794 | 10000 | 50100 | 316 | 631 | 2510 | 79.4 | 501 | 398 | 2000
3 | O=C(c1cccc(Nc2ncc(-c3ccc4c(c3)OCO4)cn2)c1)N1CCSC1 | 2000 | 1260 | 200 | 15800 | 10000 | > 39800 | 1000 | 2510 | 12600 | 1000 | 12600 | 251
4 | NC(=O)c1cc(F)ccc1Nc1nc(N[C@H]2CC[C@H](O)CC2)ncc1Cl | 1260 | 3160 | 1580 | 31600 | > 100000 | 631 | 794 | 3980 | 158 | 1580 | 631 | 5010
5 | COc1ccc(Nc2nc(N[C@H]3CC[C@H](O)CC3)ncc2Br)c(C(N)=O)c1 | 1000 | 3160 | 2000 | 12600 | > 100000 | 251 | 631 | 3980 | 100 | 794 | 398 | 3160
6 | COc1ccc(OC)c(S(=O)(=O)N(Cc2c(F)cccc2F)[C@@H]2CCN(C#N)C2)c1 | 25100 | 15800 | 6310 | > 100000 | 79400 | 794 | 20000 | 6310 | 631 | 15800 | 20000 | 12600
7 | COc1ccc2ncc(=O)n(CCN3CC[C@H](NCc4ncc(Cl)c5[nH]ncc45)[C@H](O)C3)c2n1 | > 50100 | > 50100 | 1580 | > 100000 | > 100000 | 501 | > 50100 | 3980 | 316 | > 50100 | > 50100 | 3160
8 | NC(=O)c1ncccc1Nc1nc(N[C@H]2CC[C@H](O)CC2)ncc1Br | 1260 | 1260 | 501 | > 100000 | > 100000 | 631 | 631 | 1580 | 316 | 631 | 398 | 2000
9 | CCc1cc(C(=O)Nc2nccn2-c2ccccc2)cs1 | 12600 | 6310 | 3160 | > 100000 | > 100000 | 3980 | 5010 | 3160 | 3160 | 20000 | 31600 | 5010
10 | CC(C)c1cc(Nc2cc(Cc3ccccc3)nc(N[C@H]3CC[C@H](O)CC3)n2)n[nH]1 | 63.1 | 3160 | 31.6 | 20000 | 31600 | 100 | 39.8 | 79.4 | 79.4 | 6.31 | 20 | 79.4
11 | CS(=O)(=O)N[C@H]1CC[C@H](Nc2ncc(Br)c(Nc3ccccc3C(N)=O)n2)CC1 | 2000 | 1000 | 2000 | > 100000 | > 100000 | 79.4 | 794 | 7940 | 158 | 501 | 501 | 5010
12 | O=C1NCc2cccc(Nc3nc(N[C@H]4CC[C@H](O)CC4)ncc3Br)c21 | 158 | 794 | 398 | > 100000 | > 100000 | 126 | 126 | 631 | 63.1 | 100 | 100 | 1000
13 | NS(=O)(=O)c1ccc(Nc2ncc3cccc(OC4CCNCC4)c3n2)cc1 | 20000 | 39800 | 20 | > 100000 | > 100000 | 316 | 15800 | 1780 | 200 | 631 | 1000 | 50.1
14 | COc1ccc2ncc(=O)n(CCN3CCC(NCc4ccc(-c5cccs5)cc4)CC3)c2n1 | 3160 | 1580 | 158 | 25100 | 12600 | 6310 | 1260 | 2000 | 3160 | 7940 | 10000 | 1580
15 | O=C1NCCn2ccc(Nc3nc(N[C@H]4CC[C@H](O)CC4)ncc3Cl)c21 | 1000 | 2510 | 3160 | > 100000 | > 100000 | 631 | 631 | 6310 | 501 | 398 | 398 | 20000
16 | N#Cc1cccc(CNc2ccc(-c3cnn(CC4CC4)c(=O)c3C#N)cc2)c1 | 1260 | 25100 | 5010 | 6310 | > 100000 | 12600 | 251 | 5010 | 10000 | > 50100 | 6310 | 7940
17 | COc1cc(OC)cc(C(=O)N[C@@H](CC(C)C)C(=O)NC2(C#N)CC2)c1 | > 50100 | > 50100 | > 50100 | > 100000 | > 100000 | 63.1 | > 50100 | > 50100 | 501 | > 50100 | > 50100 | > 50100
